Structures are written as SMILES.

The test system of this data set is aphids (Aphis craccivora). Nature of the data set: Efficacy/penetration depth into soils: aphid mortality on chickpeas planted in soil zones from a watered soil column. In kind it is in vivo. The following applies: top 6 cm soil with 0.5 mg/ai TMX, watering rate 255 l/m^2, chickpeas infected with Aphis craccivora, average of multiple experiments. As for the experimental part:
The penetration depth of TMX with and without the improvement system was investigated using the test setup described below.
In this connection, a cylinder (diameter approx. 5.5 cm) was filled to approx. 21 cm with liquid-saturated soil. The soil was divided into three zones of 7 cm each, which were called Zone I (uppermost soil layer), Zone II (middle soil layer), and Zone III (bottommost soil layer).
Subsequently, the cylinder was filled up with 6 cm soil that had been mixed once with 0.5 mg/ai TMX (comparison test), and once with 6 cm soil with 0.5 mg/ai TMX and 2 kg/m^2 improvement system (invention example).
The cylinder was now watered (watering rate 255 l/m^2) until the water had reached the bottom, i.e. complete watering had been achieved.
Subsequently, the soil of Zone I (uppermost zone) to Zone III (bottommost zone) was removed, and chickpeas that had been infected with aphids (Aphis craccivora) were planted in the soil. Now the mortality rate of the aphids was measured, as listed in Table I (average values on the basis of multiple experiments).

On to `CN1COCN(Cc2cnc(Cl)s2)/C1=N/[N+](=O)[O-]` [Comparison example, 3-[(2-chloro-1,3-thiazol-5-yl)methyl]-5-methyl-N-nitro-1,3,5-oxadioazinan-4-imine], for which, where the note is “Zone I (uppermost soil layer, 7 cm)”, the “mortality rate of the aphids, Zone I” value was found to be 93%. The “mortality rate of the aphids, Zone II” value (Zone II (middle soil layer, 7 cm)) came to 70%. Besides, the “mortality rate of the aphids, Zone III” value (Zone III (bottommost soil layer, 7 cm)) is listed as 5%.
